Read-outs that look alike come from different tables or passages of the source.
Columns and labels:
[1] = target: PI3K-δ (PI3K(p1108/p857) (h)) (Homo sapiens, UniProt O00329); test: Evaluation of inhibitory activity against PI3K-δ (HTRF kinase assay); type: biochemical; conditions: for inhibition at 0.01 µM: compound concentration 0.01 μM, read-out: EXP_VALUE(% Inhibition) PI3K-δ 0.01 μM; for inhibition at 0.1 µM: read-out: EXP_VALUE(% Inhibition) PI3K-δ 0.1 μM
Summary of the method: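 HTRF read-out (665/620 nm ratio ×10000) used Eu-labelled anti-GST, GST-tagged GRP1 PH domain and streptavidin-allophycocyanin after EDTA/PIP3 stop.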

DNA-PK(h) = DNA-PK(h) (Homo sapiens, UniProt P78527); test: Evaluation of inhibitory activity against DNA-PK (HTRF kinase assay, GST-cMyc-p53 substrate); type: biochemical; conditions: for inhibition at 0.01 µM: compound concentration 0.01 μM, read-out: EXP_VALUE(% Inhibition) DNA-PK(h) 0.01 μM; for inhibition at 0.1 µM: read-out: EXP_VALUE(% Inhibition) DNA-PK(h) 0.1 μM
Summary of the method: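 p53 Ser15 phosphorylation by human DNA-PK was measured by time-resolved FRET ratio (665/620 nm ×10000) using Eu-labelled anti-phospho-Ser15 and d2 anti-GST antibodies. Substrate GST-cMyc-p53 at 50 μM; Mg/ATP-initiated, 30 min at room temperature, EDTA stop.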

PI3K-δ (PI3K(p1108/p857) (h)), sequence (O00329 whole entry, the tested form may be a part): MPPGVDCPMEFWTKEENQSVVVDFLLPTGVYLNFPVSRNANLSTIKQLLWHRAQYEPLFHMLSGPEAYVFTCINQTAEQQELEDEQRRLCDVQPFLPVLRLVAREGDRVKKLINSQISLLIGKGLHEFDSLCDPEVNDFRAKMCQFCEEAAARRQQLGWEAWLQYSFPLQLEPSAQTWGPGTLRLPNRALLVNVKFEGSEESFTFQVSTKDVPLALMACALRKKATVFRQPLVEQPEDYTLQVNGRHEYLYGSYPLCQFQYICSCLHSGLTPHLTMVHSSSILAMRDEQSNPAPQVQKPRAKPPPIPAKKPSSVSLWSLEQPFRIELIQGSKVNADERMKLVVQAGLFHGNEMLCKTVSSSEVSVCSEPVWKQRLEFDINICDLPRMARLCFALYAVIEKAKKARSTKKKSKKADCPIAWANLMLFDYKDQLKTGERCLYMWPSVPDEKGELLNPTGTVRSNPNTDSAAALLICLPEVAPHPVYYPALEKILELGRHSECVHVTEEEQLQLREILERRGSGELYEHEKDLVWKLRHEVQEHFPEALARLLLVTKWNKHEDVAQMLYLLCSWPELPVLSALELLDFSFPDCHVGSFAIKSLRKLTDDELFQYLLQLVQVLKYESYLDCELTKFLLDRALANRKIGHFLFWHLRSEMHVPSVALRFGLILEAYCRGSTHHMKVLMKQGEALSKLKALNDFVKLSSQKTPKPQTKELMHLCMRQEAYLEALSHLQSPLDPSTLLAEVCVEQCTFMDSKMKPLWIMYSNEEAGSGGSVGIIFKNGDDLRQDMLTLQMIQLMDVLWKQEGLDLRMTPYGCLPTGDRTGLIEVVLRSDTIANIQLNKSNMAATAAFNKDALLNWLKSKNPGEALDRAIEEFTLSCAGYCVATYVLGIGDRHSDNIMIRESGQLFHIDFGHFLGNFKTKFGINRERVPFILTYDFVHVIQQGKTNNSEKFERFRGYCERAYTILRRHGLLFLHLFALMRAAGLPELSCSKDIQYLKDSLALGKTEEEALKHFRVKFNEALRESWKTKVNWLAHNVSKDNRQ
PI3K-δ (PI3K(p1108/p857) (h)), sequence (P27986 whole entry partner, the tested form may be a part): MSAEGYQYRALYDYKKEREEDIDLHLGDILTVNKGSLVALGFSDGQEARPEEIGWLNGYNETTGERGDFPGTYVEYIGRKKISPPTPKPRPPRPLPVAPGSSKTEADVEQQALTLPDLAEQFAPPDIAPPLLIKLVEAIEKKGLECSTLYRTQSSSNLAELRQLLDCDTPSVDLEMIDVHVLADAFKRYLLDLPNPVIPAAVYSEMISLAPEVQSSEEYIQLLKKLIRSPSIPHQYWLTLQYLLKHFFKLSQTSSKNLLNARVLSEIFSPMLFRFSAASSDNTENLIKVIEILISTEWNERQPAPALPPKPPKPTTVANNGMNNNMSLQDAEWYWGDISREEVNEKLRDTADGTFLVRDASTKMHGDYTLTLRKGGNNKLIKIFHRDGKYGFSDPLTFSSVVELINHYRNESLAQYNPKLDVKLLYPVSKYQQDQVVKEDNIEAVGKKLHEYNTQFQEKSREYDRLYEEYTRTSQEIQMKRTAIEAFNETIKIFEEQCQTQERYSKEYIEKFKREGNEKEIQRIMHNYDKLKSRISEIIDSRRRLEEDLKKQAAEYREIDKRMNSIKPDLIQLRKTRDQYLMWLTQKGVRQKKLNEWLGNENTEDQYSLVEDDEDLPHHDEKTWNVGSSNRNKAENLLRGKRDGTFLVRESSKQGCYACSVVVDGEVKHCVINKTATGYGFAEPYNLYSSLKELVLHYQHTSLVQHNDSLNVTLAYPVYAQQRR

| SMILES | inhibition at 0.01 µM [1] [%] | inhibition at 0.1 µM ([1]; compound concentration 0.1 μM) [%] | inhibition at 0.01 µM (DNA-PK(h)) [%] | inhibition at 0.1 µM (DNA-PK(h); compound concentration 0.1 μM) [%] | inhibition at 0.1 µM ([1]; compound at 0.1 μM) [%] | inhibition at 0.1 µM (DNA-PK(h); compound at 0.1 μM) [%] |
| --- | --- | --- | --- | --- | --- | --- |
| C[C@H](Nc1ncnc2[nH]ccc(=O)c12)c1c(Cl)c2cccc(C#Cc3ccccc3)c2c(=O)n1-c1ccccc1 [Example 305, (S)-4-((1-(4-chloro-1-oxo-2-phenyl-8-(phenylethynyl)-1,2-dihydroisoquinolin-3-yl)ethyl)amino)pyrido[2,3-d]pyrimidin-5(8H)-one] | 83 | 99 | 20 | 62 | – | – |
| COc1cc(-c2cccc3c(Cl)c([C@H](C)Nc4ncnc5[nH]ccc(=O)c45)n(-c4ccccc4)c(=O)c23)nc(OC)n1 [Example 49, (S)-4-((1-(4-chloro-8-(2,6-dimethoxypyrimidin-4-yl)-1-oxo-2-phenyl-1,2-dihydroisoquinolin-3-yl)ethyl)amino)pyrido[2,3-d]pyrimidin-5(8H)-one] | 23 | – | -3 | – | – | – |
| CC[S@](=N)(=O)c1cccc2c(Cl)c([C@H](C)Nc3ncnc4[nH]ccc(=O)c34)n(-c3ccccc3)c(=O)c12 [Example 436, 4-(((S)-1-(4-chloro-8-((S)-ethylsulfonimidoyl)-1-oxo-2-phenyl-1,2-dihydroisoquinolin-3-yl)ethyl)amino)pyrido[2,3-d]pyrimidin-5(8H)-one] | – | – | – | – | 7 | 9 |
| C[C@H](Nc1ncnc2[nH]ccc(=O)c12)c1c(Cl)c2cccc(-c3ccc(C4CCC4)cc3)c2c(=O)n1-c1ccccc1 [Example 118, (S)-4-((1-(4-chloro-8-(4-cyclobutylphenyl)-1-oxo-2-phenyl-1,2-dihydroisoquinolin-3-yl)ethyl)amino)pyrido[2,3-d]pyrimidin-5(8H)-one] | 29 | 81 | 26 | 74 | – | – |
| COCc1ncc(-c2cccc3c(Cl)c([C@H](C)Nc4ncnc5[nH]ccc(=O)c45)n(-c4ccccc4)c(=O)c23)cn1 [Example 55, (S)-4-((1-(4-chloro-8-(2-(methoxymethyl)pyrimidin-5-yl)-1-oxo-2-phenyl-1,2-dihydroisoquinolin-3-yl)ethyl)amino)pyrido[2,3-d]pyrimidin-5(8H)-one] | 59 | – | 44 | – | – | – |
| C[C@H](Nc1ncnc2[nH]ccc(=O)c12)c1c(Cl)c2cccc(N3CCCC3O)c2c(=O)n1-c1ccccc1 (stereo partly drawn) [Example 339, 4-(((1S)-1-(4-chloro-8-(2-hydroxypyrrolidin-1-yl)-1-oxo-2-phenyl-1,2-dihydroisoquinolin-3-yl)ethyl)amino)pyrido[2,3-d]pyrimidin-5(8H)-one] | 69 | 20 | 8 | 52 | – | – |
| C[C@H](Nc1ncnc2[nH]ccc(=O)c12)c1c(Cl)c2cccc(-c3cncnc3C3CCCC3)c2c(=O)n1-c1ccccc1 [Example 59, (S)-4-((1-(4-chloro-8-(4-cyclopentylpyrimidin-5-yl)-1-oxo-2-phenyl-1,2-dihydroisoquinolin-3-yl)ethyl)amino)pyrido[2,3-d]pyrimidin-5(8H)-one] | 70 | – | 32 | – | – | – |
| C[C@H](Nc1ncnc2[nH]ccc(=O)c12)c1c(Cl)c2cccc(-c3cnc4ccccc4c3)c2c(=O)n1-c1ccccc1 [Example 213, (S)-4-((1-(4-chloro-1-oxo-2-phenyl-8-(quinolin-3-yl)-1,2-dihydroisoquinolin-3-yl)ethyl)amino)pyrido[2,3-d]pyrimidin-5(8H)-one] | 98 | – | 69 | – | – | – |
| C[C@H](Nc1ncnc2[nH]ccc(=O)c12)c1c(Cl)c2cccc(-c3cnc(OCC(F)(F)F)nc3)c2c(=O)n1-c1ccccc1 [Example 184, (S)-4-((1-(4-chloro-1-oxo-2-phenyl-8-(2-(2,2,2-trifluoroethoxy)pyrimidin-5-yl)-1,2-dihydroisoquinolin-3-yl)ethyl)amino)pyrido[2,3-d]pyrimidin-5(8H)-one] | 78 | – | 38 | – | – | – |
| C[C@H](Nc1ncnc2[nH]ccc(=O)c12)c1c(Cl)c2cccc(-c3ccc(-c4ccccc4)cc3)c2c(=O)n1-c1ccccc1 [Example 254, (S)-4-((1-(8-([1,1′-biphenyl]-4-yl)-4-chloro-1-oxo-2-phenyl-1,2-dihydroisoquinolin-3-yl)ethyl)amino)pyrido[2,3-d]pyrimidin-5(8H)-one] | 96 | 110 | 40 | 82 | – | – |
| Cc1ccc(-c2cccc3c(Cl)c([C@H](C)Nc4ncnc5[nH]ccc(=O)c45)n(-c4ccccc4)c(=O)c23)s1 [Example 387, (S)-4-((1-(4-chloro-8-(5-methylthiophen-2-yl)-1-oxo-2-phenyl-1,2-dihydroisoquinolin-3-yl)ethyl)amino)pyrido[2,3-d]pyrimidin-5(8H)-one] | – | – | – | – | 72 | 58 |
| C[C@H](Nc1ncnc2[nH]ccc(=O)c12)c1c(Cl)c2cccc(-c3cnc(-c4ccco4)nc3)c2c(=O)n1-c1ccccc1 [Example 378, (S)-4-((1-(4-chloro-8-(2-(furan-2-yl)pyrimidin-5-yl)-1-oxo-2-phenyl-1,2-dihydroisoquinolin-3-yl)ethyl)amino)pyrido[2,3-d]pyrimidin-5(8H)-one] | – | – | – | – | 61 | 18 |
| CCc1ncc(-c2cccc3c(Cl)c([C@H](C)Nc4ncnc5[nH]ccc(=O)c45)n(-c4ccccc4)c(=O)c23)cn1 [Example 379, (S)-4-((1-(4-chloro-8-(2-ethylpyrimidin-5-yl)-1-oxo-2-phenyl-1,2-dihydroisoquinolin-3-yl)ethyl)amino)pyrido[2,3-d]pyrimidin-5(8H)-one] | – | – | – | – | 80 | 74 |
| C[C@H](Nc1ncnc2[nH]ccc(=O)c12)c1c(Cl)c2cccc(-c3ccc(-c4ccon4)cc3)c2c(=O)n1-c1ccccc1 [Example 33, (S)-4-((1-(4-chloro-8-(4-(isoxazol-3-yl)phenyl)-1-oxo-2-phenyl-1,2-dihydroisoquinolin-3-yl)ethyl)amino)pyrido[2,3-d]pyrimidin-5(8H)-one] | 92 | – | 48 | – | – | – |
| CCOc1ccc(-c2cccc3c(Cl)c([C@H](C)Nc4ncnc5[nH]ccc(=O)c45)n(-c4ccccc4)c(=O)c23)cn1 [Example 183, (S)-4-((1-(4-chloro-8-(6-ethoxypyridin-3-yl)-1-oxo-2-phenyl-1,2-dihydroisoquinolin-3-yl)ethyl)amino)pyrido[2,3-d]pyrimidin-5(8H)-one] | 85 | – | 68 | – | – | – |
| C[C@H](Nc1ncnc2[nH]ccc(=O)c12)c1c(Cl)c2cccc(S(=O)(=O)C(C)(C)C)c2c(=O)n1-c1ccccc1 [Example 433, (S)-4-((1-(8-(tert-butylsulfonyl)-4-chloro-1-oxo-2-phenyl-1,2-dihydroisoquinolin-3-yl)ethyl)amino)pyrido[2,3-d]pyrimidin-5(8H)-one] | – | – | – | – | 8 | 24 |
| C[C@H](Nc1ncnc2[nH]ccc(=O)c12)c1c(Cl)c2cccc(-c3cnc(N(C)C)nc3)c2c(=O)n1-c1ccccc1 [Example 112, (S)-4-((1-(4-chloro-8-(2-(dimethylamino)pyrimidin-5-yl)-1-oxo-2-phenyl-1,2-dihydroisoquinolin-3-yl)ethyl)amino)pyrido[2,3-d]pyrimidin-5(8H)-one] | 92 | 96 | 78 | 97 | – | – |
| C[C@H](Nc1ncnc2[nH]ccc(=O)c12)c1c(Cl)c2cccc(-c3cnc(Cl)c4ccccc34)c2c(=O)n1-c1ccccc1 [Example 69, (S)-1,4′-dichloro-3′-(1-((5-oxo-5,8-dihydropyrido[2,3-d]pyrimidin-4-yl)amino)ethyl)-2′-phenyl-(4,8′-biisoquinolin)-1′(2′H)-one] | 3.3 | 14.5 | 3 | 2.7 | – | – |
| C[C@H](Nc1ncnc2[nH]ccc(=O)c12)c1c(Cl)c2cccc(-c3cnc(C4(O)CCC4)nc3)c2c(=O)n1-c1ccccc1 [Example 438, (S)-4-((1-(4-chloro-8-(2-(1-hydroxycyclobutyl)pyrimidin-5-yl)-1-oxo-2-phenyl-1,2-dihydroisoquinolin-3-yl)ethyl)amino)pyrido[2,3-d]pyrimidin-5(8H)-one] | – | – | – | – | 87 | 64 |
| Cc1c[nH]c2ccc(-c3cccc4cc([C@H](C)Nc5ncnc6[nH]ccc(=O)c56)n(-c5ccccc5)c(=O)c34)cc12 [Example 263, (S)-4-((1-(8-(3-methyl-1H-indol-5-yl)-1-oxo-2-phenyl-1,2-dihydroisoquinolin-3-yl)ethyl)amino)pyrido[2,3-d]pyrimidin-5(8H)-one] | 77 | 89 | 6 | 52 | – | – |
| C[C@H](Nc1ncnc2[nH]ccc(=O)c12)c1c(Cl)c2cccc(-c3cccc(Cl)c3)c2c(=O)n1-c1ccccc1 [Example 97, (S)-4-((1-(4-chloro-8-(3-chlorophenyl)-1-oxo-2-phenyl-1,2-dihydroisoquinolin-3-yl)ethyl)amino)pyrido[2,3-d]pyrimidin-5(8H)-one] | 84 | 99 | 35 | 87 | – | – |

From patent US20230072683A1, “PYRIDO-PYRIMIDIN DERIVATIVES AND PHARMACEUTICAL COMPOSITION, FOR USE IN PREVENTING OR TREATING PI3 KINASE RELATED DISEASES, COMPRISING SAME AS ACTIVE INGREDIENT” (BORYUNG PHARMACEUTICAL CO., LTD, priority 2019, published 2023)
